Data as given in the NIST ThermoML archive (doi:10.1016/j.fluid.2010.03.017).
± gives the expanded uncertainty stated by the source.

Assay: cn = amount concentration of the nth substance listed, in mol/dm3
Conditions: 308.65 K; 101 kPa; Liquid; c1 = 0.005

SMILES	mass density
[Cl-].c1ccc([P+](c2ccccc2)(c2ccccc2)c2ccccc2)cc1 [tetraphenylphosphonium chloride] + O	994.05 ± 0.54 kg/m3
[Cl-].c1ccc([P+](c2ccccc2)(c2ccccc2)c2ccccc2)cc1 [tetraphenylphosphonium chloride] + CCO	777.31 ± 1.9 kg/m3
[Cl-].c1ccc([P+](c2ccccc2)(c2ccccc2)c2ccccc2)cc1 [tetraphenylphosphonium chloride] + CC#N	767.478 ± 2 kg/m3
[Cl-].c1ccc([P+](c2ccccc2)(c2ccccc2)c2ccccc2)cc1 [tetraphenylphosphonium chloride] + CO	776.52 ± 1.9 kg/m3

Same assay, conditions: 308.65 K; 101 kPa; Liquid; c1 = 0.01

SMILES	mass density
[Cl-].c1ccc([P+](c2ccccc2)(c2ccccc2)c2ccccc2)cc1 [tetraphenylphosphonium chloride] + O	995.67 ± 0.53 kg/m3
[Cl-].c1ccc([P+](c2ccccc2)(c2ccccc2)c2ccccc2)cc1 [tetraphenylphosphonium chloride] + CCO	778.02 ± 1.9 kg/m3
[Cl-].c1ccc([P+](c2ccccc2)(c2ccccc2)c2ccccc2)cc1 [tetraphenylphosphonium chloride] + CC#N	768.43 ± 2 kg/m3
[Cl-].c1ccc([P+](c2ccccc2)(c2ccccc2)c2ccccc2)cc1 [tetraphenylphosphonium chloride] + CO	779.51 ± 1.9 kg/m3

Same assay, conditions: 308.65 K; 101 kPa; Liquid; c1 = 0.02

SMILES	mass density
[Cl-].c1ccc([P+](c2ccccc2)(c2ccccc2)c2ccccc2)cc1 [tetraphenylphosphonium chloride] + O	998.12 ± 0.52 kg/m3
[Cl-].c1ccc([P+](c2ccccc2)(c2ccccc2)c2ccccc2)cc1 [tetraphenylphosphonium chloride] + CCO	778.83 ± 1.9 kg/m3
[Cl-].c1ccc([P+](c2ccccc2)(c2ccccc2)c2ccccc2)cc1 [tetraphenylphosphonium chloride] + CC#N	772.35 ± 2 kg/m3
[Cl-].c1ccc([P+](c2ccccc2)(c2ccccc2)c2ccccc2)cc1 [tetraphenylphosphonium chloride] + CO	780.37 ± 1.9 kg/m3

Same assay, conditions: 308.65 K; 101 kPa; Liquid; c1 = 0.05

SMILES	mass density
[Cl-].c1ccc([P+](c2ccccc2)(c2ccccc2)c2ccccc2)cc1 [tetraphenylphosphonium chloride] + O	996.84 ± 0.53 kg/m3
[Cl-].c1ccc([P+](c2ccccc2)(c2ccccc2)c2ccccc2)cc1 [tetraphenylphosphonium chloride] + CCO	784.24 ± 1.9 kg/m3
[Cl-].c1ccc([P+](c2ccccc2)(c2ccccc2)c2ccccc2)cc1 [tetraphenylphosphonium chloride] + CC#N	776.18 ± 1.9 kg/m3
[Cl-].c1ccc([P+](c2ccccc2)(c2ccccc2)c2ccccc2)cc1 [tetraphenylphosphonium chloride] + CO	787.22 ± 1.9 kg/m3

Same assay, conditions: 308.65 K; 101 kPa; Liquid; c1 = 0.1

SMILES	mass density
[Cl-].c1ccc([P+](c2ccccc2)(c2ccccc2)c2ccccc2)cc1 [tetraphenylphosphonium chloride] + O	1001.06 ± 0.52 kg/m3
[Cl-].c1ccc([P+](c2ccccc2)(c2ccccc2)c2ccccc2)cc1 [tetraphenylphosphonium chloride] + CCO	791.62 ± 1.8 kg/m3
[Cl-].c1ccc([P+](c2ccccc2)(c2ccccc2)c2ccccc2)cc1 [tetraphenylphosphonium chloride] + CC#N	784.14 ± 1.9 kg/m3
[Cl-].c1ccc([P+](c2ccccc2)(c2ccccc2)c2ccccc2)cc1 [tetraphenylphosphonium chloride] + CO	793.29 ± 1.8 kg/m3

Same assay, conditions: 308.65 K; 101 kPa; Liquid; c2 = 0

SMILES	mass density
CC#N [acetonitrile] + [Cl-].c1ccc([P+](c2ccccc2)(c2ccccc2)c2ccccc2)cc1	765.82 ± 2 kg/m3
CO [methanol] + [Cl-].c1ccc([P+](c2ccccc2)(c2ccccc2)c2ccccc2)cc1	776.519 ± 1.9 kg/m3
CCO [ethanol] + [Cl-].c1ccc([P+](c2ccccc2)(c2ccccc2)c2ccccc2)cc1	775.93 ± 1.9 kg/m3

Same assay, conditions: 311.65 K; 101 kPa; Liquid; c1 = 0.005

SMILES	mass density
[Cl-].c1ccc([P+](c2ccccc2)(c2ccccc2)c2ccccc2)cc1 [tetraphenylphosphonium chloride] + O	993.46 ± 0.54 kg/m3
[Cl-].c1ccc([P+](c2ccccc2)(c2ccccc2)c2ccccc2)cc1 [tetraphenylphosphonium chloride] + CCO	775.32 ± 1.9 kg/m3
[Cl-].c1ccc([P+](c2ccccc2)(c2ccccc2)c2ccccc2)cc1 [tetraphenylphosphonium chloride] + CC#N	764.4 ± 2 kg/m3
[Cl-].c1ccc([P+](c2ccccc2)(c2ccccc2)c2ccccc2)cc1 [tetraphenylphosphonium chloride] + CO	774.51 ± 1.9 kg/m3

Same assay, conditions: 311.65 K; 101 kPa; Liquid; c1 = 0.01

SMILES	mass density
[Cl-].c1ccc([P+](c2ccccc2)(c2ccccc2)c2ccccc2)cc1 [tetraphenylphosphonium chloride] + O	994.88 ± 0.54 kg/m3
[Cl-].c1ccc([P+](c2ccccc2)(c2ccccc2)c2ccccc2)cc1 [tetraphenylphosphonium chloride] + CCO	775.16 ± 1.9 kg/m3
[Cl-].c1ccc([P+](c2ccccc2)(c2ccccc2)c2ccccc2)cc1 [tetraphenylphosphonium chloride] + CC#N	765.22 ± 2 kg/m3
[Cl-].c1ccc([P+](c2ccccc2)(c2ccccc2)c2ccccc2)cc1 [tetraphenylphosphonium chloride] + CO	778.81 ± 1.9 kg/m3

Same assay, conditions: 311.65 K; 101 kPa; Liquid; c1 = 0.02

SMILES	mass density
[Cl-].c1ccc([P+](c2ccccc2)(c2ccccc2)c2ccccc2)cc1 [tetraphenylphosphonium chloride] + O	996.99 ± 0.52 kg/m3
[Cl-].c1ccc([P+](c2ccccc2)(c2ccccc2)c2ccccc2)cc1 [tetraphenylphosphonium chloride] + CCO	776.11 ± 1.9 kg/m3
[Cl-].c1ccc([P+](c2ccccc2)(c2ccccc2)c2ccccc2)cc1 [tetraphenylphosphonium chloride] + CC#N	769.19 ± 2 kg/m3
[Cl-].c1ccc([P+](c2ccccc2)(c2ccccc2)c2ccccc2)cc1 [tetraphenylphosphonium chloride] + CO	777.85 ± 1.9 kg/m3

Same assay, conditions: 311.65 K; 101 kPa; Liquid; c1 = 0.05

SMILES	mass density
[Cl-].c1ccc([P+](c2ccccc2)(c2ccccc2)c2ccccc2)cc1 [tetraphenylphosphonium chloride] + O	995.58 ± 0.53 kg/m3
[Cl-].c1ccc([P+](c2ccccc2)(c2ccccc2)c2ccccc2)cc1 [tetraphenylphosphonium chloride] + CCO	781.91 ± 1.9 kg/m3
[Cl-].c1ccc([P+](c2ccccc2)(c2ccccc2)c2ccccc2)cc1 [tetraphenylphosphonium chloride] + CC#N	773.42 ± 1.9 kg/m3
[Cl-].c1ccc([P+](c2ccccc2)(c2ccccc2)c2ccccc2)cc1 [tetraphenylphosphonium chloride] + CO	784.14 ± 1.9 kg/m3

Same assay, conditions: 311.65 K; 101 kPa; Liquid; c1 = 0.1

SMILES	mass density
[Cl-].c1ccc([P+](c2ccccc2)(c2ccccc2)c2ccccc2)cc1 [tetraphenylphosphonium chloride] + O	997.28 ± 0.53 kg/m3
[Cl-].c1ccc([P+](c2ccccc2)(c2ccccc2)c2ccccc2)cc1 [tetraphenylphosphonium chloride] + CCO	789.98 ± 1.9 kg/m3
[Cl-].c1ccc([P+](c2ccccc2)(c2ccccc2)c2ccccc2)cc1 [tetraphenylphosphonium chloride] + CC#N	780.77 ± 1.9 kg/m3
[Cl-].c1ccc([P+](c2ccccc2)(c2ccccc2)c2ccccc2)cc1 [tetraphenylphosphonium chloride] + CO	790.42 ± 1.9 kg/m3

Same assay, conditions: 311.65 K; 101 kPa; Liquid; c2 = 0

SMILES	mass density
CC#N [acetonitrile] + [Cl-].c1ccc([P+](c2ccccc2)(c2ccccc2)c2ccccc2)cc1	762.77 ± 2 kg/m3
CO [methanol] + [Cl-].c1ccc([P+](c2ccccc2)(c2ccccc2)c2ccccc2)cc1	773.896 ± 1.9 kg/m3
O [water] + [Cl-].c1ccc([P+](c2ccccc2)(c2ccccc2)c2ccccc2)cc1	993.13 ± 0.55 kg/m3
CCO [ethanol] + [Cl-].c1ccc([P+](c2ccccc2)(c2ccccc2)c2ccccc2)cc1	773.4 ± 1.9 kg/m3

Same assay, conditions: 314.65 K; 101 kPa; Liquid; c1 = 0.005

SMILES	mass density
[Cl-].c1ccc([P+](c2ccccc2)(c2ccccc2)c2ccccc2)cc1 [tetraphenylphosphonium chloride] + O	991.77 ± 0.56 kg/m3
[Cl-].c1ccc([P+](c2ccccc2)(c2ccccc2)c2ccccc2)cc1 [tetraphenylphosphonium chloride] + CCO	772.48 ± 1.9 kg/m3
[Cl-].c1ccc([P+](c2ccccc2)(c2ccccc2)c2ccccc2)cc1 [tetraphenylphosphonium chloride] + CC#N	762.76 ± 2 kg/m3
[Cl-].c1ccc([P+](c2ccccc2)(c2ccccc2)c2ccccc2)cc1 [tetraphenylphosphonium chloride] + CO	771.62 ± 1.9 kg/m3

Same assay, conditions: 314.65 K; 101 kPa; Liquid; c1 = 0.01

SMILES	mass density
[Cl-].c1ccc([P+](c2ccccc2)(c2ccccc2)c2ccccc2)cc1 [tetraphenylphosphonium chloride] + O	992.33 ± 0.55 kg/m3
[Cl-].c1ccc([P+](c2ccccc2)(c2ccccc2)c2ccccc2)cc1 [tetraphenylphosphonium chloride] + CCO	772.21 ± 1.9 kg/m3
[Cl-].c1ccc([P+](c2ccccc2)(c2ccccc2)c2ccccc2)cc1 [tetraphenylphosphonium chloride] + CC#N	762.76 ± 2 kg/m3
[Cl-].c1ccc([P+](c2ccccc2)(c2ccccc2)c2ccccc2)cc1 [tetraphenylphosphonium chloride] + CO	775.7 ± 1.9 kg/m3

Same assay, conditions: 314.65 K; 101 kPa; Liquid; c1 = 0.02

SMILES	mass density
[Cl-].c1ccc([P+](c2ccccc2)(c2ccccc2)c2ccccc2)cc1 [tetraphenylphosphonium chloride] + O	995.43 ± 0.53 kg/m3
[Cl-].c1ccc([P+](c2ccccc2)(c2ccccc2)c2ccccc2)cc1 [tetraphenylphosphonium chloride] + CCO	773.38 ± 1.9 kg/m3
[Cl-].c1ccc([P+](c2ccccc2)(c2ccccc2)c2ccccc2)cc1 [tetraphenylphosphonium chloride] + CC#N	766.82 ± 2 kg/m3
[Cl-].c1ccc([P+](c2ccccc2)(c2ccccc2)c2ccccc2)cc1 [tetraphenylphosphonium chloride] + CO	774.95 ± 1.9 kg/m3

Same assay, conditions: 314.65 K; 101 kPa; Liquid; c1 = 0.05

SMILES	mass density
[Cl-].c1ccc([P+](c2ccccc2)(c2ccccc2)c2ccccc2)cc1 [tetraphenylphosphonium chloride] + O	994.11 ± 0.54 kg/m3
[Cl-].c1ccc([P+](c2ccccc2)(c2ccccc2)c2ccccc2)cc1 [tetraphenylphosphonium chloride] + CCO	779.58 ± 1.9 kg/m3
[Cl-].c1ccc([P+](c2ccccc2)(c2ccccc2)c2ccccc2)cc1 [tetraphenylphosphonium chloride] + CC#N	770.87 ± 2 kg/m3
[Cl-].c1ccc([P+](c2ccccc2)(c2ccccc2)c2ccccc2)cc1 [tetraphenylphosphonium chloride] + CO	782.06 ± 1.9 kg/m3

Same assay, conditions: 314.65 K; 101 kPa; Liquid; c1 = 0.1

SMILES	mass density
[Cl-].c1ccc([P+](c2ccccc2)(c2ccccc2)c2ccccc2)cc1 [tetraphenylphosphonium chloride] + O	995.93 ± 0.53 kg/m3
[Cl-].c1ccc([P+](c2ccccc2)(c2ccccc2)c2ccccc2)cc1 [tetraphenylphosphonium chloride] + CCO	787.77 ± 1.9 kg/m3
[Cl-].c1ccc([P+](c2ccccc2)(c2ccccc2)c2ccccc2)cc1 [tetraphenylphosphonium chloride] + CC#N	777.19 ± 1.9 kg/m3
[Cl-].c1ccc([P+](c2ccccc2)(c2ccccc2)c2ccccc2)cc1 [tetraphenylphosphonium chloride] + CO	788.49 ± 1.9 kg/m3

Same assay, conditions: 314.65 K; 101 kPa; Liquid; c2 = 0

SMILES	mass density
CC#N [acetonitrile] + [Cl-].c1ccc([P+](c2ccccc2)(c2ccccc2)c2ccccc2)cc1	759.726 ± 2.1 kg/m3
CO [methanol] + [Cl-].c1ccc([P+](c2ccccc2)(c2ccccc2)c2ccccc2)cc1	771.1 ± 2 kg/m3
O [water] + [Cl-].c1ccc([P+](c2ccccc2)(c2ccccc2)c2ccccc2)cc1	991.68 ± 0.56 kg/m3
CCO [ethanol] + [Cl-].c1ccc([P+](c2ccccc2)(c2ccccc2)c2ccccc2)cc1	770.84 ± 2 kg/m3
